The source made the active and inactive calls. How the calls were made is not given here.

In the data set the test system is rodent carcinogenicity bioassays, tumor incidence. In words: CCRIS carcinogenicity studies. An outline of the steps:
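NCI-built, expert-reviewed records of carcinogenicity and related test outcomes (mutagenicity, tumor promotion/inhibition) compiled from published and report sources, historical span 1985-2011, not updated.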

As to `ClC(Br)Br`, the carcinogen call runs as follows: (Species: MOUSE, Strain/Sex: B6C3F1/FEMALE, Route: GAVAGE, Dose: 0, 50, 100 MG/KG IN CORN OIL 5 D/WK FOR 105 WK (STUDY DURATION: 105 WK), Dose: 0, 50, 100 MG/KG IN CORN OIL 5 D/WK FOR 105 WK (STUDY DURATION: 105 WK), Tumor Site: Type of Lesion: LIVER: HEPATOCELLULAR ADENOMA, HEPATOCELLULAR ADENOMA OR CARCINOMA) “active; positive”; (Species: MOUSE, Strain/Sex: B6C3F1/MALE, Route: GAVAGE, Dose: 0, 50, 100 MG/KG IN CORN OIL 5 D/WK FOR 105 WK (STUDY DURATION: 105 WK), Dose: 0, 50, 100 MG/KG IN CORN OIL 5 D/WK FOR 105 WK (STUDY DURATION: 105 WK), Tumor Site: Type of Lesion: LIVER: HEPATOCELLULAR CARCINOMA, HEPATOCELLULAR ADENOMA OR CARCINOMA) “equivocal”; (Species: RAT, Strain/Sex: F344/FEMALE, Route: GAVAGE, Dose: 0, 40, 80 MG/KG IN CORN OIL 5 D/WK FOR 104 WK (STUDY DURATION: 105 WK), Dose: 0, 40, 80 MG/KG IN CORN OIL 5 D/WK FOR 104 WK (STUDY DURATION: 105 WK)) “inactive; negative”; (Species: RAT, Strain/Sex: F344/MALE, Route: GAVAGE, Dose: 0, 40, 80 MG/KG IN CORN OIL 5 D/WK FOR 104 WK (STUDY DURATION: 105 WK), Dose: 0, 40, 80 MG/KG IN CORN OIL 5 D/WK FOR 104 WK (STUDY DURATION: 105 WK)) “inactive; negative”.
`O=[N+]([O-])c1ccc2ccc3c4ccccc4c([N+](=O)[O-])c4ccc1c2c43`: the carcinogen call is, setting by setting: (Species: RAT, Strain/Sex: F344/MALE, Route: SUBCUTANEOUS IMPLANT, Dose: 0, 8, 40, 200, 1000 UG IN 50 µL BEESWAX/TRICAPRYLIN IMPLANTED FOR UP TO 45 WK (STUDY DURATION: 45 WK), Dose: 0, 8, 40, 200, 1000 UG IN 50 µL BEESWAX/TRICAPRYLIN IMPLANTED FOR UP TO 45 WK (STUDY DURATION: 45 WK), Tumor Site: Type of Lesion: IMPLANT SITE: TUMOR) “active; positive”; (Species: RAT, Strain/Sex: F344/MALE, Route: SUBCUTANEOUS, Dose: 0, 8, 40, 200, 1000 UG SUSPENDED IN BEESWAX/TRICAPRYLIN (1:1) ONCE (STUDY DURATION: LIFETIME), Dose: 0, 8, 40, 200, 1000 UG SUSPENDED IN BEESWAX/TRICAPRYLIN (1:1) ONCE (STUDY DURATION: LIFETIME), Tumor Site: Type of Lesion: SUBCUTANEOUS TISSUE: TUMOR) “active; positive”.
Take `ON=C1CCCC1`: the carcinogen call (Species: RAT, Strain/Sex: F344/MALE, Route: GAVAGE, Dose: 0, 2 MMOL/KG BW 1/WK FOR 50 WK (STUDY DURATION: 83 WK)) was “inactive; negative”.
Consider `CCOC(=O)N(CC)N=O`, for which the carcinogen call by setting is: (Species: HAMSTER, Strain/Sex: SYRIAN/FEMALE, Route: GAVAGE, Dose: 0, 14 MG/ML ((0.2 ML OF A SOLUTION IN ETHYL ACETATE/CORN OIL (1:2)) 1/WK FOR 28 WK (STUDY DURATION: LIFE SPAN), Tumor Site: Type of Lesion: PANCREAS: CARCINOMA OR ADENOMA, FORESTOMACH: SQUAMOUS CELL CARCINOMA OR PAPILLOMA) “active; positive”; (Species: RAT, Strain/Sex: DONRYU/FEMALE, Route: ORAL, Dose: 0, 25, 50, 100 PPM IN DRINKING WATER FOR 60 WK, Dose: 0, 25, 50, 100 PPM IN DRINKING WATER FOR 60 WK, Tumor Site: Type of Lesion: ORAL CAVITY: PAPILLOMA, CARCINOMA, ESOPHAGUS: PAPILLOMA, CARCINOMA, FORESTOMACH: PAPILLOMA, CARCINOMA, DUODENUM: ADENOMA, Tumor Site: Type of Lesion: ORAL CAVITY: PAPILLOMA, CARCINOMA, ESOPHAGUS: PAPILLOMA, CARCINOMA, FORESTOMACH: PAPILLOMA, CARCINOMA, DUODENUM: ADENOMA) “active; positive”; (Species: RAT, Strain/Sex: F344/FEMALE, Route: GAVAGE, Dose: 0, 0.36, 1.6 MG/ANIMAL IN CORN OIL 1/WK FOR 20 WK (STUDY DURATION: 114 WK), Dose: 0, 0.36, 1.6 MG/ANIMAL IN CORN OIL 1/WK FOR 20 WK (STUDY DURATION: 114 WK), Tumor Site: Type of Lesion: FORESTOMACH: CARCINOMA, PAPILLOMA OR CARCINOMA) “active; positive”; (Species: RAT, Strain/Sex: F344/FEMALE, Route: INTRAVESICULAR, Dose: 0, 0.8 MG 2/WK FOR 14 WK (STUDY DURATION: LIFETIME), Tumor Site: Type of Lesion: BLADDER: TUMOR) “active; positive”; (Species: RAT, Strain/Sex: F344/FEMALE, Route: ORAL, Dose: 0, 0.15, 0.6, 2.5, 10 PPM IN DISTILLED WATER FOR 2 YRS (STUDY DURATION: 112 WK), Dose: 0, 0.15, 0.6, 2.5, 10 PPM IN DISTILLED WATER FOR 2 YRS (STUDY DURATION: 112 WK), Tumor Site: Type of Lesion: ORAL CAVITY: PAPILLOMA, CARCINOMA, ESOPHAGUS: PAPILLOMA, CARCINOMA, FORESTOMACH: PAPILLOMA, CARCINOMA, Tumor Site: Type of Lesion: ORAL CAVITY: PAPILLOMA, CARCINOMA, ESOPHAGUS: PAPILLOMA, CARCINOMA, FORESTOMACH: PAPILLOMA, CARCINOMA) “active; positive”.
In the case of `c1ccc2c(c1)cc1ccc3cc4ccccc4c4ccc2c1c34`, the carcinogen call is “active; positive” (Species: HAMSTER, Route: SUBCUTANEOUS, Tumor Site: Type of Lesion: INJECTION SITE); “active; positive” (Species: MOUSE, Route: DERMAL, Tumor Site: Type of Lesion: INTEGUMENTARY SYSTEM (SKIN)); “active; positive” (Species: MOUSE, Route: SUBCUTANEOUS, Tumor Site: Type of Lesion: INJECTION SITE).
`Nc1ccc(NCCO)c([N+](=O)[O-])c1`: the carcinogen call is, setting by setting: (Species: MOUSE, Strain/Sex: B6C3F1/MALE, Route: GAVAGE, Dose: 0, 125, 250 MG/KG IN CORN OIL 5 D/WK FOR 104 WK (STUDY DURATION: 105 WK), Dose: 0, 125, 250 MG/KG IN CORN OIL 5 D/WK FOR 104 WK (STUDY DURATION: 105 WK), Tumor Site: Type of Lesion: LIVER: HEPATOCELLULAR ADENOMA OR CARCINOMA) “equivocal”; (Species: RAT, Strain/Sex: F344/FEMALE, Route: GAVAGE, Dose: 0, 250, 500 MG/KG IN CORN OIL 5 D/WK FOR 105 WK (STUDY DURATION: 105 WK), Dose: 0, 250, 500 MG/KG IN CORN OIL 5 D/WK FOR 105 WK (STUDY DURATION: 105 WK)) “inactive; negative”; (Species: RAT, Strain/Sex: F344/MALE, Route: GAVAGE, Dose: 0, 250, 500 MG/KG IN CORN OIL 5 D/WK FOR 105 WK (STUDY DURATION: 105 WK), Dose: 0, 250, 500 MG/KG IN CORN OIL 5 D/WK FOR 105 WK (STUDY DURATION: 105 WK)) “inactive; negative”.
For the molecule `C=C(C)C(N)=O`, the carcinogen call reads like this: (Species: MOUSE, Strain/Sex: DDY, Route: INTRAPERITONEAL, Dose: 0, 2.35 MMOL/KG 1/2 D FOR 5 DOSES (STUDY DURATION: 6 MO), Tumor Site: Type of Lesion: LUNG: ADENOMA) “active; positive”; (Species: MOUSE, Strain/Sex: DDY, Route: INTRAPERITONEAL, Dose: 0, 2.35 MMOL/KG 1/D FOR 5 D (STUDY DURATION: 6 MO), Tumor Site: Type of Lesion: LUNG: ADENOMA) “active; positive”.
For the molecule `C=CCc1ccc2c(c1)OCO2`, the carcinogen call (Species: MOUSE, Strain/Sex: B6AKF1/MALE,FEMALE, Route: GAVAGE, ORAL, Dose: 464 MG/KG FROM D 7-28 OF LIFE THEN 1112 MG/KG IN DIET, Tumor Site: Type of Lesion: LIVER: HEPATOCELLULAR TUMOR) is “active; positive”; the carcinogen call (Species: MOUSE, Strain/Sex: B6C3F1/MALE,FEMALE, Route: GAVAGE, ORAL, Dose: 464 MG/KG FROM D 7-28 OF LIFE THEN 1112 MG/KG IN DIET, Tumor Site: Type of Lesion: LIVER: HEPATOCELLULAR TUMOR) is “active; positive”; the carcinogen call (Species: MOUSE, Strain/Sex: BALB/MALE, Route: ORAL, Dose: 0, 4000 PPM IN DIET FOR 52 WK (STUDY DURATION: 75 WK), Tumor Site: Type of Lesion: LIVER: HEPATOCELLULAR CARCINOMA, HEPATOCELLULAR ADENOMA) is “active; positive”; the carcinogen call (Species: MOUSE, Strain/Sex: CD-1/MALE, Route: ORAL, Dose: 4000, 5000 MG/KG IN DIET FOR 13 MO, Tumor Site: Type of Lesion: LIVER: HEPATOCELLULAR CARCINOMA) is “active; positive”; the carcinogen call (Species: MOUSE, Strain/Sex: CD-1/MALE, Route: SUBCUTANEOUS, Dose: 0.66, 6.6 MG (TOTAL DOSES) IN TRICAPRYLIN IN 3 WK, Tumor Site: Type of Lesion: LIVER) is “active; positive”; the carcinogen call (Species: MOUSE, Strain/Sex: SWISS/FEMALE, Route: SUBCUTANEOUS, Dose: 0.66, 6.6 MG (TOTAL DOSES) IN TRICAPRYLIN IN 3 WK, Tumor Site: Type of Lesion: LUNG: ADENOMA, ADENOCARCINOMA) is “active; positive”. The carcinogen call reads like this: (Species: MOUSE, Strain/Sex: SWISS/MALE, Route: SUBCUTANEOUS, Dose: 0.66, 6.6 MG (TOTAL DOSES) IN TRICAPRYLIN IN 3 WK, Tumor Site: Type of Lesion: LIVER: HEPATOMA) “active; positive”; (Species: RAT, Strain/Sex: OSBORNE-MENDEL/MALE,FEMALE, Route: ORAL, Dose: 100, 500, 1000, 5000 MG/KG IN DIET FOR 2 YR, Dose: 100, 500, 1000, 5000 MG/KG IN DIET FOR 2 YR, Tumor Site: Type of Lesion: LIVER: HEPATOCELLULAR CARCINOMA, CHOLANGIOCARCINOMA) “active; positive”.

The values above are taken from PubChem BioAssay AID1259411 (Chemical Carcinogenesis Research Information System (CCRIS), 2018).
